# Source: US20240400561A1, “NOVEL SUBSTITUTED SULFONYLUREA COMPOUNDS AS INHIBITORS OF INTERLEUKIN-1 ACTIVITY” (Viva Star Biosciences (Suzhou) Co., Ltd., priority 2021, published 2024)
# Target: T1, NLRP3 (Homo sapiens, UniProt Q96P20)
# T1 construct: Seed THP-1 cells (5.56*10^5 cells/mL) containing 1.0 ug/mL LPS; endogenous in cells; host or cells: THP-1 cells
# Test: THP-1 cell assay (LPS priming, nigericin), IL1β release by HTRF; called pyroptosis assay, THP IC50
# Format: cell-based
# Settings: NLRP3 inhibitory activity; THP-1 cells, 1.0 ug/mL LPS, compound 3 hrs, nigericin 5 uM 1 hr, IL1β in supernatant
# Method: The following method was used for compound screening. • 1. Seed THP-1 cells (5.56*10^5 cells/mL) containing 1.0 ug/mL LPS (SIGMA, L6529) in 45 uL RPMI 1640 medium (without FBS) into 384-well plate (Thermo Scientific, 164688). • 2. Add 5 uL compound (10 doses starting from 5 uM, 1:3 dilution) or vehicle (0.05% DMSO in medium) to the appropriate wells. • 3. Centrifuge the plates at 1000 rpm for 2 mins and incubate for 3 hrs at 37° C., 5% CO2. • 4. Add 5 uL nigericin (MEC, HY-100381) (final conc. 5 uM) to sample wells and positive control wells; add 5 uL RPMI 1640 medium to negative control wells. • 5. Centrifuge plates at 1000 rpm for 2 mins and incubate for 1 hr at 37° C., 5% CO2. • 6. At the end of the incubation period, centrifuge plates at 1000 rpm for 6 mins and transfer 8 uL supernatant into 384-well assay plates (PerkinElmer, 6008280). • 7. Add 8 ul RPMI 1640 medium into each well and spin down for 10 secs. • 8. Prepare the standard solutions and pre-mixed IL1β antibody solution of Human […] kits (PerkinElmer, 62HIL1BPEH) according to the instruction. • 9. Add 16 uL standard solutions into clear wells of 384-well assay plates. • 10. Add 4 uL pre-mixed IL1β antibody solution to all wells including sample wells, positive control wells, negative control wells and standard solutions wells. • 11. Seal the plates, spin down for 10 secs, incubation for overnight at RT and read on an HTRF® compatible reader (BMG LABTECH, PHERAstar FS). • 12. The concentrations of IL1β for treated wells are calculated by the standard curve. • 13. The IC50 data is fitted to a non-liner regression equation (log inhibitor vs. response—Variable slope four parameters)).
# T1 sequence (Q96P20 whole entry): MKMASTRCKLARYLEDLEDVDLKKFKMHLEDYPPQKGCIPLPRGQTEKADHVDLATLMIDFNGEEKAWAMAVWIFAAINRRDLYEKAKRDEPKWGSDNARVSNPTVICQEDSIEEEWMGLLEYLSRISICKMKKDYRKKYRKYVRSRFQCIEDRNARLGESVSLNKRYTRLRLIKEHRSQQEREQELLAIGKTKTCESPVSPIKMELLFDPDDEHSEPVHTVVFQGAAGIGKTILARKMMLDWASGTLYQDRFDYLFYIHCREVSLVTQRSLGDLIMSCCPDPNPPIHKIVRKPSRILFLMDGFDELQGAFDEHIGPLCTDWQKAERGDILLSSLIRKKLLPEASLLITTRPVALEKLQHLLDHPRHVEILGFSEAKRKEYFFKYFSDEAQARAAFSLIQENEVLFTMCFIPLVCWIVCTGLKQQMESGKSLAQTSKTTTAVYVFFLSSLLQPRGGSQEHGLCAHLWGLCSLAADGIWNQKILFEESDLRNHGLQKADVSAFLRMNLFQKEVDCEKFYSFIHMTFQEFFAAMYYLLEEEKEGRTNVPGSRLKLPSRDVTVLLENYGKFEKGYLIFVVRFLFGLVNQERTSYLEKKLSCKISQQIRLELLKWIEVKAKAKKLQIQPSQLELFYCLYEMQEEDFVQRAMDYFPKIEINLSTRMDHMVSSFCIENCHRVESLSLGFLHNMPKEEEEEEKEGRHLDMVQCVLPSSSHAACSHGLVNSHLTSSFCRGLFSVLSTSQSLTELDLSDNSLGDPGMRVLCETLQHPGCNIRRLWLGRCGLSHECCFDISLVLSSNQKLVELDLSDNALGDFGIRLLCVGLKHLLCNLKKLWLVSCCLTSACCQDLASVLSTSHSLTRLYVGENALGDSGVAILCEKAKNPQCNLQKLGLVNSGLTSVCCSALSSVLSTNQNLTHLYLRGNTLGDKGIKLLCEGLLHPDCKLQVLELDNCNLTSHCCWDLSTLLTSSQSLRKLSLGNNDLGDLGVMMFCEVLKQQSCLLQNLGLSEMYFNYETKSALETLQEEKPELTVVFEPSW
row,IC50,Compound
1,≤ 30 nM,"O=C(Nc1c2c(cc(Cl)c1-c1ccn3cnnc3c1)CCC2)NS(=O)(=O)c1ccn(C2CC2)n1 [Example 96, N-((5-([1,2,4]triazolo[4,3-a]pyridin-7-yl)-6-chloro-2,3-dihydro-1H-inden-4-yl)carbamoyl)-1-cyclopropyl-1H-pyrazole-3-sulfonamide]"
2,≤ 30 nM,"CC(C)(O)c1csc(S(=O)(=O)NC(=O)Nc2c(-c3ccn4ncnc4c3)ccc3c2CCC3)c1 [Example 53, N-((5-([1,2,4]triazolo[1,5-a]pyridin-7-yl)-2,3-dihydro-1H-inden-4-yl)carbamoyl)-4-(2-hydroxypropan-2-yl)thiophene-2-sulfonamide]"
3,300 to 1000 nM,"Cc1cc2c(c(NC(=O)NS(=O)(=O)c3ccn(C(C)C4CC4)n3)c1-c1ccn3nccc3c1)CCC2 (centres unmarked) [Example 82, 1-(1-cyclopropylethyl)-N-((6-methyl-5-(pyrazolo[1,5-a]pyridin-5-yl)-2,3-dihydro-1H-inden-4-yl)carbamoyl)-1H-pyrazole-3-sulfonamide]"
4,30 to 300 nM,"Cc1cc2c(c(NC(=O)NS(=O)(=O)c3ccn(C[C@@H]4CCO4)n3)c1-c1ccn3ncnc3c1)CCC2 [Example 94, (S)—N-((5-([1,2,4]triazolo[1,5-a]pyridin-7-yl)-6-methyl-2,3-dihydro-1H-inden-4-yl)carbamoyl)-1-(oxetan-2-ylmethyl)-1H-pyrazole-3-sulfonamide]"
5,30 to 300 nM,"Cc1cc2c(c(NC(=O)NS(=O)(=O)c3ccn(C4CC4)n3)c1-c1ccn3nccc3c1)OCC2 [Example 83, 1-cyclopropyl-N-((5-methyl-6-(pyrazolo[1,5-a]pyridin-5-yl)-2,3-dihydrobenzofuran-7-yl)carbamoyl)-1H-pyrazole-3-sulfonamide]"
6,≤ 30 nM,"Cc1cc2c(c(NC(=O)NS(=O)(=O)c3cnn(C4CCC4)c3)c1-c1ccn3nccc3c1)CCC2 [Example 12, 1-cyclobutyl-N-((6-methyl-5-(pyrazolo[1,5-a]pyridin-5-yl)-2,3-dihydro-1H-inden-4-yl)carbamoyl)-1H-pyrazole-4-sulfonamide]"
7,≤ 30 nM,"Cc1cc2c(c(NC(=O)NS(=O)(=O)c3cncc(C4CCC4)c3)c1-c1ccn3nccc3c1)CCC2 [Example 84, 5-cyclobutyl-N-((6-methyl-5-(pyrazolo[1,5-a]pyridin-5-yl)-2,3-dihydro-1H-inden-4-yl)carbamoyl)pyridine-3-sulfonamide]"
8,≤ 30 nM,"Cc1cc2c(c(NC(=O)NS(=O)(=O)c3cncc(OC4CC4)c3)c1-c1ccn3nccc3c1)CCC2 [Example 34, 5-cyclopropoxy-N-((6-methyl-5-(pyrazolo[1,5-a]pyridin-5-yl)-2,3-dihydro-1H-inden-4-yl)carbamoyl)pyridine-3-sulfonamide]"
9,300 to 1000 nM,"CN1CCC(n2ccc3c(-c4ccc5c(c4NC(=O)NS(=O)(=O)c4cc(C(C)(C)O)cs4)CCC5)ccnc32)CC1 [Example 55, 4-(2-hydroxypropan-2-yl)-N-((5-(1-(1-methylpiperidin-4-yl)-1H-pyrrolo[2,3-b]pyridin-4-yl)-2,3-dihydro-1H-inden-4-yl)carbamoyl)thiophene-2-sulfonamide]"
10,≤ 30 nM,"CC(C)(O)c1csc(S(=O)(=O)NC(=O)Nc2c(-c3ccc4ccnn4c3)ccc3c2CCC3)c1 [Example 68, 4-(2-hydroxypropan-2-yl)-N-((5-(pyrazolo[1,5-a]pyridin-6-yl)-2,3-dihydro-1H-inden-4-yl)carbamoyl)thiophene-2-sulfonamide]"
11,30 to 300 nM,"Cc1cc2c(c(NC(=O)NS(=O)(=O)C3CC(OC4CC4)C3)c1-c1ccn3nccc3c1)CCC2 (centres unmarked) [Example 75, 3-cyclopropoxy-N-((6-methyl-5-(pyrazolo[1,5-a]pyridin-5-yl)-2,3-dihydro-1H-inden-4-yl)carbamoyl)cyclobutane-1-sulfonamide]"
12,≤ 30 nM,"O=C(Nc1c(-c2ccn3nccc3c2)ccc2c1CCC2)NS(=O)(=O)c1cncc(NC2CC2)c1 [Example 31, 5-(cyclopropylamino)-N-((5-(pyrazolo[1,5-a]pyridin-5-yl)-2,3-dihydro-1H-inden-4-yl)carbamoyl)pyridine-3-sulfonamide]"
13,≤ 30 nM,"Cc1cc2c(c(NC(=O)NS(=O)(=O)c3cnn(C4CC4)c3)c1-c1ccn3nccc3c1)CCC2 [Example 14, 1-cyclopropyl-N-((6-methyl-5-(pyrazolo[1,5-a]pyridin-5-yl)-2,3-dihydro-1H-inden-4-yl)carbamoyl)-1H-pyrazole-4-sulfonamide]"

# More lines, now with the values behind:
row,Compound,IC50
1,"CN1CCC(n2ccc3c(-c4ccc5c(c4NC(=O)NS(=O)(=O)c4cc(C(C)(C)O)cs4)CCC5)ccnc32)C1 (centres unmarked) [Example 57, 4-(2-hydroxypropan-2-yl)-N-((5-(1-(1-methylpyrrolidin-3-yl)-1H-pyrrolo[2,3-b]pyridin-4-yl)-2,3-dihydro-1H-inden-4-yl)carbamoyl)thiophene-2-sulfonamide]",300 to 1000 nM
2,"O=C(Nc1c2c(cc(CO)c1-c1ccn3nccc3c1)CCC2)NS(=O)(=O)c1ccn(C2CC2)n1 [Example 98, 1-cyclopropyl-N-((6-(hydroxymethyl)-5-(pyrazolo[1,5-a]pyridin-5-yl)-2,3-dihydro-1H-inden-4-yl)carbamoyl)-1H-pyrazole-3-sulfonamide]",30 to 300 nM
3,"CC(C)(O)c1csc(S(=O)(=O)NC(=O)Nc2c(-c3ccnc4c3ccn4C3CCOCC3)ccc3c2CCC3)c1 [Example 56, 4-(2-hydroxypropan-2-yl)-N-((5-(1-(tetrahydro-2H-pyran-4-yl)-1H-pyrrolo[2,3-b]pyridin-4-yl)-2,3-dihydro-1H-inden-4-yl)carbamoyl)thiophene-2-sulfonamide]",30 to 300 nM
4,"CC(C)(O)c1csc(S(=O)(=O)NC(=O)Nc2c(-c3ccn4nncc4c3)ccc3c2CCC3)c1 [Example 62, N-((5-([1,2,3]triazolo[1,5-a]pyridin-5-yl)-2,3-dihydro-1H-inden-4-yl)carbamoyl)-4-(2-hydroxypropan-2-yl)thiophene-2-sulfonamide]",30 to 300 nM
5,"CC(C)(O)c1csc(S(=O)(=O)NC(=O)Nc2c(-c3ccnc4[nH]ccc34)ccc3c2CCC3)c1 [Example 40, N-((5-(1H-pyrrolo[2,3-b]pyridin-4-yl)-2,3-dihydro-1H-inden-4-yl)carbamoyl)-4-(2-hydroxypropan-2-yl)thiophene-2-sulfonamide]",≤ 30 nM
6,"Cc1cc2c(c(NC(=O)NS(=O)(=O)c3cncc(N(C)C4CC4)c3)c1-c1ccn3nccc3c1)CCC2 [Example 29, 5-(cyclopropyl(methyl)amino)-N-((6-methyl-5-(pyrazolo[1,5-a]pyridin-5-yl)-2,3-dihydro-1H-inden-4-yl)carbamoyl)pyridine-3-sulfonamide]",30 to 300 nM
7,"CC(C)(O)c1csc(S(=O)(=O)NC(=O)Nc2c(-c3ccn4ccnc4c3)ccc3c2CCC3)c1 [Example 42, 4-(2-hydroxypropan-2-yl)-N-((5-(imidazo[1,2-a]pyridin-7-yl)-2,3-dihydro-1H-inden-4-yl)carbamoyl)thiophene-2-sulfonamide]",≤ 30 nM
8,"Cc1cc2c(c(NC(=O)NS(=O)(=O)c3ccn(C4CC4)n3)c1-c1ccn3cnnc3c1)CCC2 [Example 93, N-((5-([1,2,4]triazolo[4,3-a]pyridin-7-yl)-6-methyl-2,3-dihydro-1H-inden-4-yl)carbamoyl)-1-cyclopropyl-pyrazole-3-sulfonamide]",≤ 30 nM
9,"Cc1cc2c(c(NC(=O)NS(=O)(=O)c3cncc(OC4CCC4)c3)c1-c1ccn3nccc3c1)CCC2 [Example 35, 5-cyclobutoxy-N-((6-methyl-5-(pyrazolo[1,5-a]pyridin-5-yl)-2,3-dihydro-1H-inden-4-yl)carbamoyl)pyridine-3-sulfonamide]",≤ 30 nM
10,"N#Cc1cc2c(c(NC(=O)NS(=O)(=O)c3cnn(CC4CC4)c3)c1-c1ccn3cncc3c1)CCC2 [Example 13, N-((6-cyano-5-(imidazo[1,5-a]pyridin-7-yl)-2,3-dihydro-1H-inden-4-yl)carbamoyl)-1-(cyclopropylmethyl)-1H-pyrazole-4-sulfonamide]",≤ 30 nM
11,"CC(C)(O)c1csc(S(=O)(=O)NC(=O)Nc2c(-c3ccn4ccnc4c3)ccc3c2OCO3)c1 [Example 66, 4-(2-hydroxypropan-2-yl)-N-((5-(imidazo[1,2-a]pyridin-7-yl)benzo[d][1,3]dioxol-4-yl)carbamoyl)thiophene-2-sulfonamide]",≤ 30 nM
12,"Cc1cc2c(c(NC(=O)NS(=O)(=O)c3cc(C(C)(C)O)cs3)c1-c1ccn3nccc3c1)CCC2 [Example 70, 4-(2-hydroxypropan-2-yl)-N-((6-methyl-5-(pyrazolo[1,5-a]pyridin-5-yl)-2,3-dihydro-1H-inden-4-yl)carbamoyl)thiophene-2-sulfonamide]",≤ 30 nM
13,"Cn1ccc2c(-c3ccc4c(c3NC(=O)NS(=O)(=O)c3cc(C(C)(C)O)cs3)CCC4)ccnc21 [Example 41, 4-(2-hydroxypropan-2-yl)-N-((5-(1-methyl-1H-pyrrolo[2,3-b]pyridin-4-yl)-2,3-dihydro-1H-inden-4-yl)carbamoyl)thiophene-2-sulfonamide]",≤ 30 nM
